Test results published in paper PMC7044277 (Nature Communications, 2020).
“And” between values parts separate entries of the source, which are not always exact repeats. Identical values can stand only once.

What was measured:
Type in all cases: cell-based
320 non-olfactory GPCRs [1] = target: T1, 320 non-olfactory GPCRs (Homo sapiens, UniProt Q9NSD7); design: GPCRome screening signal at PTGIR / GPCRome screening signal at PTH1R / GPCRome screening signal at PTH2R / GPCRome screening signal at QRFP / GPCRome screening signal at RXFP2 / GPCRome screening signal at RXFP3 / GPCRome screening signal at RXFP4 / GPCRome screening signal at S1PR2 / GPCRome screening signal at S1PR3 / GPCRome screening signal at S1PR4 / GPCRome screening signal at S1PR5 / GPCRome screening signal at SCTR / GPCRome screening signal at SSTR2 / GPCRome screening signal at SSSTR / GPCRome screening signal at SSTR4 / GPCRome screening signal at SSTR5 / GPCRome screening signal at SUCNR1 / GPCRome screening signal at TA1 / GPCRome screening signal at TAAR2 / GPCRome screening signal at TAAR5 / GPCRome screening signal at TAAR6 / GPCRome screening signal at TAAR8 / GPCRome screening signal at TACR1 / GPCRome screening signal at TACR2 / GPCRome screening signal at TACR3 / GPCRome screening signal at TBXA2R / GPCRome screening signal at TSHR / GPCRome screening signal at UTS2R / GPCRome screening signal at VIPR2 / GPCRome screening signal at GPR68 no V2 Tail / GPCRome screening signal at GRM2 / GPCRome screening signal at GRM3: reference not given here; settings: receptor RXFP3
T1 construct: expressed in transfected cells; host or cells: HTLA cells
T1 sequence (Q9NSD7 whole entry): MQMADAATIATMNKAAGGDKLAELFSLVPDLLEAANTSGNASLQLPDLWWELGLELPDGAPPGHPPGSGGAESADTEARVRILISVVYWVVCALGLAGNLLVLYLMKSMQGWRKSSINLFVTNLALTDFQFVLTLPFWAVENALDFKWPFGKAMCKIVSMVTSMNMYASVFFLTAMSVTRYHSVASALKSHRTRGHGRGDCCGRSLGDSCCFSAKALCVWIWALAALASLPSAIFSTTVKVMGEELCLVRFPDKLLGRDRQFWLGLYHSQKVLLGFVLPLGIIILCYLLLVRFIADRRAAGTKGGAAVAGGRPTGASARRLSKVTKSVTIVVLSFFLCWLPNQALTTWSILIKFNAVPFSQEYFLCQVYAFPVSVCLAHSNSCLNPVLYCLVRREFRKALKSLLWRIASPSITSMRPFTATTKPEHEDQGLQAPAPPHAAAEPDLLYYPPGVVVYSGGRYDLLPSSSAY

320 non-olfactory GPCRs [2] = target: 320 non-olfactory GPCRs (Homo sapiens, UniProt P21453); design: GPCRome screening signal at PTGIR / GPCRome screening signal at PTH1R / GPCRome screening signal at PTH2R / GPCRome screening signal at QRFP / GPCRome screening signal at RXFP2 / GPCRome screening signal at RXFP3 / GPCRome screening signal at RXFP4 / GPCRome screening signal at S1PR2 / GPCRome screening signal at S1PR3 / GPCRome screening signal at S1PR4 / GPCRome screening signal at S1PR5 / GPCRome screening signal at SCTR / GPCRome screening signal at SSTR2 / GPCRome screening signal at SSSTR / GPCRome screening signal at SSTR4 / GPCRome screening signal at SSTR5 / GPCRome screening signal at SUCNR1 / GPCRome screening signal at TA1 / GPCRome screening signal at TAAR2 / GPCRome screening signal at TAAR5 / GPCRome screening signal at TAAR6 / GPCRome screening signal at TAAR8 / GPCRome screening signal at TACR1 / GPCRome screening signal at TACR2 / GPCRome screening signal at TACR3 / GPCRome screening signal at TBXA2R / GPCRome screening signal at TSHR / GPCRome screening signal at UTS2R / GPCRome screening signal at VIPR2 / GPCRome screening signal at GPR68 no V2 Tail / GPCRome screening signal at GRM2 / GPCRome screening signal at GRM3: reference not given here; settings: receptor S1PR1
Sequence of 320 non-olfactory GPCRs (Homo sapiens, UniProt P21453) (P21453 whole entry): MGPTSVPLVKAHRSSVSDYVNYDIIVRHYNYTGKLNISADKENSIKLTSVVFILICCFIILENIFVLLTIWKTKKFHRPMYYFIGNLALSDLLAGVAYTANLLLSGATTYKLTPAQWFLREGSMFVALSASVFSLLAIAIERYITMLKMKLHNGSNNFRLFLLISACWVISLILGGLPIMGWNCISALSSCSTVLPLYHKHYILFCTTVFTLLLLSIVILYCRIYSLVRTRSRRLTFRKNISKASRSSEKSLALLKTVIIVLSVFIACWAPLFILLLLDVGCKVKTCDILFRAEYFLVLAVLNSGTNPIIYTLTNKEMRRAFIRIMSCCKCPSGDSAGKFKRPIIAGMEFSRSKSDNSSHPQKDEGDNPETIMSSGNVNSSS

320 non-olfactory GPCRs [3] = target: T2, 320 non-olfactory GPCRs (Homo sapiens, UniProt Q14832); design: GPCRome screening signal at PTGIR / GPCRome screening signal at PTH1R / GPCRome screening signal at PTH2R / GPCRome screening signal at QRFP / GPCRome screening signal at RXFP2 / GPCRome screening signal at RXFP3 / GPCRome screening signal at RXFP4 / GPCRome screening signal at S1PR2 / GPCRome screening signal at S1PR3 / GPCRome screening signal at S1PR4 / GPCRome screening signal at S1PR5 / GPCRome screening signal at SCTR / GPCRome screening signal at SSTR2 / GPCRome screening signal at SSSTR / GPCRome screening signal at SSTR4 / GPCRome screening signal at SSTR5 / GPCRome screening signal at SUCNR1 / GPCRome screening signal at TA1 / GPCRome screening signal at TAAR2 / GPCRome screening signal at TAAR5 / GPCRome screening signal at TAAR6 / GPCRome screening signal at TAAR8 / GPCRome screening signal at TACR1 / GPCRome screening signal at TACR2 / GPCRome screening signal at TACR3 / GPCRome screening signal at TBXA2R / GPCRome screening signal at TSHR / GPCRome screening signal at UTS2R / GPCRome screening signal at VIPR2 / GPCRome screening signal at GPR68 no V2 Tail / GPCRome screening signal at GRM2 / GPCRome screening signal at GRM3: reference not given here; settings: receptor GRM3
T2 construct: expressed in transfected cells; host or cells: HTLA cells
T2 sequence (Q14832 23-879): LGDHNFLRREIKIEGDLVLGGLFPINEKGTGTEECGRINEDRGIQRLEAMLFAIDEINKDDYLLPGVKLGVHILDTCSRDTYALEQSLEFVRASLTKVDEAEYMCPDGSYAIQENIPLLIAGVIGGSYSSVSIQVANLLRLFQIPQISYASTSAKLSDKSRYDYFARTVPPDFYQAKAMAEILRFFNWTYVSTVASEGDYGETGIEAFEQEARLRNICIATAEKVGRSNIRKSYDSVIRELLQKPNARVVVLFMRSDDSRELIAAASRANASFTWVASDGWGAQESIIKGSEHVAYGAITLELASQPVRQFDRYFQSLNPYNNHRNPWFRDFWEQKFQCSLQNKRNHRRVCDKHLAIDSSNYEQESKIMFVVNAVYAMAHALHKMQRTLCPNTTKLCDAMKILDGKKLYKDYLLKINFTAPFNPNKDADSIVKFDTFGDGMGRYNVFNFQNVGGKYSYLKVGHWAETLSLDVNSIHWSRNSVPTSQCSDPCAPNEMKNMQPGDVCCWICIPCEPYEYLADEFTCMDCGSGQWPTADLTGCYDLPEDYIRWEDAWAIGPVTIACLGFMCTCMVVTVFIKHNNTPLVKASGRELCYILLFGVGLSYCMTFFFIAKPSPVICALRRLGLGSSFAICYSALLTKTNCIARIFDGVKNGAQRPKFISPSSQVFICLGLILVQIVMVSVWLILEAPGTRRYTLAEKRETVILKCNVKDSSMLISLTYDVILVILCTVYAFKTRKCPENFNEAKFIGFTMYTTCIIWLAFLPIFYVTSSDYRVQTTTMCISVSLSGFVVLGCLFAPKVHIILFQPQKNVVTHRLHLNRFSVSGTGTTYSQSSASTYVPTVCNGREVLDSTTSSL

5HT1D = 5HT1D (Homo sapiens, UniProt P28221); test: β-arrestin2 recruitment (Tango); settings: agonist activity only at high concentrations
Sequence of 5HT1D (P28221 whole entry): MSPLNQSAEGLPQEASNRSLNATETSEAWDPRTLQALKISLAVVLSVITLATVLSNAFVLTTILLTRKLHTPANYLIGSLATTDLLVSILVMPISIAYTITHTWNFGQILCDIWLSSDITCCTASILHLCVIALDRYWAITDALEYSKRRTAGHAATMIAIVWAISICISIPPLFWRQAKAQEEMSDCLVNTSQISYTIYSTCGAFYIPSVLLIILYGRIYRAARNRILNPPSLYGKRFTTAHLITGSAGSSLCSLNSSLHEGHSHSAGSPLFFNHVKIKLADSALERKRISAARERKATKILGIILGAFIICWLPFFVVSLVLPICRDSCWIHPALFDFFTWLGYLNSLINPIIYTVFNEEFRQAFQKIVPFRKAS

DRD2 S1945.43G = target: T3, DRD2 S1945.43G (Homo sapiens, UniProt P14416, S194G); test: Gαi/o-mediated cAMP inhibition (GloSensor), mutant; settings: DRD2 Ser5.43Gly; G-protein assay
T3 construct: expressed in transfected cells; host or cells: HEK293T (ATCC CRL-11268)
T3 sequence (P14416 whole entry S194G): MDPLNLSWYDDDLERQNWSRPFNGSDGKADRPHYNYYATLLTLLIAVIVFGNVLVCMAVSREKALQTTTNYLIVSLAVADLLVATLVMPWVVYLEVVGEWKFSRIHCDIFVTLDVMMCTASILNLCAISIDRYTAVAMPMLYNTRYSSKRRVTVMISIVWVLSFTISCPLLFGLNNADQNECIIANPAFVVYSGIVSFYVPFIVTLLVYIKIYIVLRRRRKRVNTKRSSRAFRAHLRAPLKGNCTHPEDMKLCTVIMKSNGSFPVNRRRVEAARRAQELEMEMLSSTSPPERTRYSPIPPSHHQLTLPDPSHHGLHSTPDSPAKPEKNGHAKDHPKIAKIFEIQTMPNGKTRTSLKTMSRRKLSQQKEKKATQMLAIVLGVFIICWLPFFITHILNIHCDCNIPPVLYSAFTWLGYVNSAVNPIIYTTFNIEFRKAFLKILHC

DRD1 = DRD1 (Homo sapiens, UniProt P21728); test: β-arrestin2 recruitment (Tango); settings: agonist mode
Sequence of DRD1 (P21728 whole entry): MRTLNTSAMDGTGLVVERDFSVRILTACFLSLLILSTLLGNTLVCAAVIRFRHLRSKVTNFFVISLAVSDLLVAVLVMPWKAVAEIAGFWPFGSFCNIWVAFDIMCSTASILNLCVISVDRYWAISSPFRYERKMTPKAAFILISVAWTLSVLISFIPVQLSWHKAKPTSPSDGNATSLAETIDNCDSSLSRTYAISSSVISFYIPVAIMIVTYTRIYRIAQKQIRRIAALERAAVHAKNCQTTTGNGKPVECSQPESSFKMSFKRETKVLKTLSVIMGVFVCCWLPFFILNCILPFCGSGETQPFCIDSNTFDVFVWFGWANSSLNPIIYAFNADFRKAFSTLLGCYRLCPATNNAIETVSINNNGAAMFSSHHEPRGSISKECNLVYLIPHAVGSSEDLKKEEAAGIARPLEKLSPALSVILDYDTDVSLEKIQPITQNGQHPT

DRD2 S1975.46G = target: T4, DRD2 S1975.46G (Homo sapiens, UniProt P14416, S197G); test: Gαi/o-mediated cAMP inhibition (GloSensor), mutant; settings: DRD2 Ser197^5.46Gly; G-protein assay
T4 construct: expressed in transfected cells; host or cells: HEK293T (ATCC CRL-11268)
T4 sequence (P14416 whole entry S197G): as the sequence (P14416 whole entry S194G) above, with G194S, S197G counted along it

5HT7A = target: T5, 5HT7A (Homo sapiens, UniProt P34969); test: β-arrestin2 recruitment (Tango); settings: for β-arrestin2 recruitment response, replicate points of concentration-response curve: Fig_S10q, agonist mode
T5 construct: expressed in transfected cells; host or cells: HTLA cells expressing TEV-fused β-arrestin2
T5 sequence (P34969 1-445 isoform P34969-2): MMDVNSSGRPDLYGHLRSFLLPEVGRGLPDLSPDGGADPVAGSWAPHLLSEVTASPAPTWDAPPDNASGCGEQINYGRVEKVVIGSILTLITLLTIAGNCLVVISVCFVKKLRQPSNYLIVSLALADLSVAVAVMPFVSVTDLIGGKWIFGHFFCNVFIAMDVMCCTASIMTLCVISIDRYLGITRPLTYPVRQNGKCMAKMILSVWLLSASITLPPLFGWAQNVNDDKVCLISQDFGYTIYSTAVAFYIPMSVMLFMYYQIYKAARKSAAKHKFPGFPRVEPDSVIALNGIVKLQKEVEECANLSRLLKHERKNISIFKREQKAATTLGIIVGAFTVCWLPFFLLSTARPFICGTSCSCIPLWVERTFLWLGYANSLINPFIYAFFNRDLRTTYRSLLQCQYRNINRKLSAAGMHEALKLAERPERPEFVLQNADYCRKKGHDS

DRD2 S1935.42G = target: T6, DRD2 S1935.42G (Homo sapiens, UniProt P14416, S193G); test: Gαi/o-mediated cAMP inhibition (GloSensor), mutant; settings: DRD2 Ser5.42Gly; G-protein assay
T6 construct: expressed in transfected cells; host or cells: HEK293T (ATCC CRL-11268)
T6 sequence (P14416 whole entry S193G): as the sequence (P14416 whole entry S194G) above, with S193G, G194S counted along it

[4] = Fig_5f, single replicate values
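Throughout, for GPCRome agonism screen response: fold over basal response of each receptor without drug.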

CCOc1ccccc1CCC(C)NCC1(O)CCCCC1.Cl (racemic) [Fig_5f]
GPCRome screening signal at RXFP3 (320 non-olfactory GPCRs [1]; [4]): 0.4184 and 0.8431 and 0.6194 and 0.3935
GPCRome screening signal at S1PR1 (320 non-olfactory GPCRs [2]; [4]): 0.7005 and 1.113 and 2.609 and 1.363
GPCRome screening signal at GRM3 (320 non-olfactory GPCRs [3]; [4]): 0.4086 and 1.387 and 0.6216 and 1.325

CCOc1cccc2cc(C(C)NCC3(O)CCCCC3)oc12 (stereo not shown) [O4LE6]
GPCRome agonism screen response (320 non-olfactory GPCRs [1]; replicate values, Fig_4g): 0.4551 and 0.2696 and 0.704 and 0.4767
GPCRome agonism screen response (320 non-olfactory GPCRs [2]; replicate values, Fig_4g): 2.353 and 1.219 and 1.439 and 0.7423
GPCRome agonism screen response (320 non-olfactory GPCRs [3]; replicate values, Fig_4g): 0.5635 and 0.5272 and 0.9256 and 1.931

CCOc1cccc2cc([C@H](C)NCC3(O)CCCCC3)oc12 [O4SE6]
concentration at which the receptor is activated (5HT1D): over 1 μM
agonism after serine to glycine substitution (DRD2 S1945.43G): impaired
Fig_S10d concentration-response source data, compound alone (replicates) (DRD1; Log[Drug] -6.52): 1.081
Fig_S10d concentration-response source data, compound alone (replicates) (DRD1; Log[Drug] -7): 1.077 and 2.449 and 0.7206 and 0.01093 and 0.2616 and 0.5709 and 0.4663 and -0.4785 and 0.5459
Fig_S10d concentration-response source data, compound alone (replicates) (DRD1; Log[Drug] -7.52): 0.3818 and 0.7249 and 2.612 and 1.107 and 0.1296 and 1.638 and 0.2406 and 0.3904 and 0.4963
Fig_S10d concentration-response source data, compound alone (replicates) (DRD1; Log[Drug] -8): 4.337 and 0.3775 and 1.059 and 0.9723 and 0.606 and 0.3811 and 0.01404 and 0.5796 and 0.0103
Fig_S10d concentration-response source data, compound alone (replicates) (DRD1; Log[Drug] -8.52): 1.411 and 0.7206 and 3.809 and 2.0766 and 0.164 and 0.2319 and -0.01873 and 0.09082 and 0.3165
Fig_S10d concentration-response source data, compound alone (replicates) (DRD1; Log[Drug] -9): -0.3131 and 1.5871 and 3.29 and -0.05311 and -0.07654 and 0.3577 and 0.09363 and 0.0515 and 0.4204
Fig_S10d concentration-response source data, compound alone (replicates) (DRD1; Log[Drug] -9.52): 3.9849 and 1.227 and 1.561 and 0.082 and -0.1093 and 0.5131 and -0.06273 and 0.7238 and 1.497
Fig_S10d concentration-response source data, compound alone (replicates) (DRD1; Log[Drug] -10): 3.981 and 1.729 and 5.684 and -0.04842 and 0.2671 and 0.3249 and 0.426 and 0.4251 and 0.5346
Fig_S10d concentration-response source data, compound alone (replicates) (DRD1; Log[Drug] -10.52): 0.712 and 1.746 and 4.122 and 0.3608 and 0.264 and 0.2335 and 1.101 and -0.02996 and 0.2809
Fig_S10d concentration-response source data, compound alone (replicates) (DRD1; Log[Drug] -11): 2.269 and 1.742 and 3.972 and 0.1742 and 0.3296 and 0.01406 and 0.6835 and 1.257 and -0.2856
Fig_S10d concentration-response source data, compound alone (replicates) (DRD1; Log[Drug] -11.52): 0.3861 and 1.068 and 2.775 and -0.2327 and -0.01484 and 0.1414 and 0.7734 and -0.7734 and -0.2032
Fig_S10d concentration-response source data, compound alone (replicates) (DRD1; Log[Drug] -12): 1.754 and 0.5705 and -0.2917 and 0.1156 and 0.2702 and 0.1429 and -0.6489 and -0.1919 and -0.08146
agonism after serine to glycine substitution (DRD2 S1975.46G): impaired
concentration at which the receptor is activated (5HT7A; 5HT7A, agonist activity only at high concentrations): over 1 μM
β-arrestin2 recruitment response, replicate points of concentration-response curve (5HT7A; Log[Drug] -8.52): -17.0653 and -8.2658 and 45.2148 and -20.2418 and -21.803 and -0.7194 and -2.896 and -5.6 and 11.1273 and 4.271 and -5.097 and 41.8171
β-arrestin2 recruitment response, replicate points of concentration-response curve (5HT7A; Log[Drug] -9): -5.443 and 2.933 and -8.226 and -2.556 and -7.477 and 46.4452 and 15.6099 and 24.9983 and 34.962 and -18.0177 and 28.5192 and 18.5487
β-arrestin2 recruitment response, replicate points of concentration-response curve (5HT7A; Log[Drug] -9.52): -12.1477 and -17.9982 and -14.9702 and 11.6094 and 28.1779 and -35.8001 and 6.565 and -15.7686 and -5.626 and -8.555 and 44.6962 and -16.9086
β-arrestin2 recruitment response, replicate points of concentration-response curve (5HT7A; Log[Drug] -10): 8.096 and 0.4862 and 3.854 and 5.12 and -39.6418 and 11.9538 and 0.1785 and 14.2612 and 32.5752 and 35.9646 and 2.796 and -2.0885
β-arrestin2 recruitment response, replicate points of concentration-response curve (5HT7A; Log[Drug] -10.52): -7.874 and -13.6459 and -8.622 and -2.931 and 11.0507 and -27.4126 and -0.1587 and -15.0413 and -19.8744 and -43.7994 and 23.1032 and 11.941
β-arrestin2 recruitment response, replicate points of concentration-response curve (5HT7A; Log[Drug] -11): -18.3698 and 12.5825 and -5.609 and -19.6985 and -4.821 and 50.3406 and -7.299 and -5.302 and 7.068 and 22.7847 and 5.345 and 29.9587
β-arrestin2 recruitment response, replicate points of concentration-response curve (5HT7A; Log[Drug] -11.52): -11.7405 and -3.06 and 5.3959 and -7.492 and 32.3027 and 44.3713 and -10.4331 and 15.1471 and 38.5521 and -11.882 and -21.4277 and -18.6431
β-arrestin2 recruitment response, replicate points of concentration-response curve (5HT7A; Log[Drug] -12): -10.8669 and -8.214 and -4.091 and -12.7879 and 18.5659 and 87.5029 and 6.479 and 24.6612 and 1.765 and 32.6018 and 45.9115 and -9.546
agonism after serine to glycine substitution (DRD2 S1935.42G): impaired
